Source: the CheMixHub ionic liquid set

Test: xn = mol fraction of the nth substance listed
Details: for electrical conductivity: frequency 0.005 MHz

C[C@H](N)C(=O)[O-].C[N+](C)(C)CCO + O
Details	viscosity [mPa·s]
287.97 K, 100 kPa, x1 = 0.2939	177
288.1 K, 100 kPa, x1 = 1	5100
289.25 K, 100 kPa, x1 = 0.5975	970
289.31 K, 100 kPa, x1 = 0.692	1467
289.96 K, 100 kPa, x1 = 1	3700
290.48 K, 100 kPa, x1 = 0.2939	153
290.53 K, 100 kPa, x1 = 0.7994	1752
292.92 K, 100 kPa, x1 = 0.097	8.7
292.92 K, 100 kPa, x1 = 0.4948	490
292.92 K, 100 kPa, x1 = 0.5975	710
292.92 K, 100 kPa, x1 = 0.692	1030
294.1 K, 100 kPa, x1 = 0.097	8.4
294.1 K, 100 kPa, x1 = 0.4948	450
294.1 K, 100 kPa, x1 = 0.692	930
294.1 K, 100 kPa, x1 = 0.7994	1250
295.27 K, 100 kPa, x1 = 0.7994	1129
296.45 K, 100 kPa, x1 = 0.4948	377
296.45 K, 100 kPa, x1 = 0.7994	1016
297.63 K, 100 kPa, x1 = 0.097	7.4
298.1 K, 101.3 kPa, x1 = 0.2727	33
298.81 K, 100 kPa, x1 = 0.2939	90
298.81 K, 100 kPa, x1 = 0.7994	840
299.98 K, 100 kPa, x1 = 0.097	6.9
299.98 K, 100 kPa, x1 = 0.3748	156
300.27 K, 100 kPa, x1 = 1	1538
301.16 K, 100 kPa, x1 = 0.692	530
302.34 K, 100 kPa, x1 = 0.3748	135
303.51 K, 100 kPa, x1 = 0.3748	126
303.51 K, 100 kPa, x1 = 0.7994	580
304.72 K, 100 kPa, x1 = 1	1206
305.86 K, 100 kPa, x1 = 0.3748	109
305.86 K, 100 kPa, x1 = 0.4948	200
305.86 K, 100 kPa, x1 = 0.8993	680
307.04 K, 100 kPa, x1 = 0.3748	103
307.04 K, 100 kPa, x1 = 0.5975	254
307.04 K, 100 kPa, x1 = 0.8993	630
313 K, 101.3 kPa, x1 = 0.1233	5.7
323.2 K, 100 kPa, x1 = 1	337
333 K, 101.3 kPa, x1 = 0.05881	2.27

CCCO + CC[n+]1ccccc1.N#C[N-]C#N
Details	viscosity [mPa·s]
288.15 K, 100 kPa, x1 = 1	2.51

CCCCCCCCCCCCCC[N+](C)(C)C.[Br-] + O
298.15 K, 101 kPa
Details	viscosity [mPa·s]
x1 = 2.973e-05	0.8984
x1 = 4.144e-05	0.8992
x1 = 4.541e-05	0.9002
x1 = 6.289e-05	0.9005
x1 = 6.739e-05	0.9013
x1 = 7.262e-05	0.9019
x1 = 0.0001005	0.9029
x1 = 0.0001191	0.9053
x1 = 0.000178	0.9083

C=CC(=O)OC + CCCC[n+]1ccn(C)c1.F[B-](F)(F)F
101 kPa
Details	viscosity [mPa·s]
293.15 K, x2 = 0.1387	2.163
293.15 K, x2 = 0.9242	108.1
298.15 K, x2 = 0	0.465
303.15 K, x2 = 0.3354	6.16
303.15 K, x2 = 0.4317	11.33
308.15 K, x2 = 0.8484	39.89
313.15 K, x2 = 0	0.36
318.15 K, x2 = 0	0.334
318.15 K, x2 = 0.6532	12.51
318.15 K, x2 = 0.9242	31.5

NC(=O)CC[C@H](N)C(=O)O + CCCCCCCCCCCC[N+](C)(C)C.[Br-] + O
viscosity [mPa·s], 101 kPa
Details	293.15 K	298.15 K	303.15 K	308.15 K	313.15 K
x1 = 0.0001801, x2 = 0.0001083	1.02	0.908	0.822	0.738	0.667
x1 = 0.0001801, x2 = 0.0001624	1.024	0.911	0.824	0.74	0.67
x1 = 0.0001801, x2 = 0.0002165	1.028	0.913	0.825	0.742	0.672
x1 = 0.0001801, x2 = 0.0002706	1.036	0.914	0.827	0.744	0.674
x1 = 0.0001801, x2 = 0.0003247	1.045	0.917	0.828	0.745	0.676
x1 = 0.0001801, x2 = 0.0003788	1.051	0.921	0.832	0.747	0.677
x1 = 0.0001801, x2 = 0.0004328	1.057	0.926	0.835	0.749	0.68
x1 = 0.0001801, x2 = 0.0004869	1.062	0.932	0.837	0.754	0.683
x1 = 0.0001801, x2 = 0.000541	1.067	0.937	0.841	0.757	0.687
x1 = 0.0001802, x2 = 5.413e-05	1.018	0.905	0.819	0.735	0.666
x1 = 0.0008997, x2 = 0.0005438	1.057	0.91	0.821	0.751	0.678
x1 = 0.0008998, x2 = 0.0003807	1.045	0.898	0.81	0.739	0.668
x1 = 0.0008998, x2 = 0.0004351	1.051	0.902	0.814	0.743	0.67
x1 = 0.0008998, x2 = 0.0004894	1.053	0.906	0.818	0.747	0.674
x1 = 0.0008999, x2 = 0.000272	1.041	0.893	0.805	0.734	0.664
x1 = 0.0008999, x2 = 0.0003263	1.043	0.896	0.807	0.736	0.666
x1 = 0.0009, x2 = 0.0001632	1.036	0.889	0.801	0.729	0.66
x1 = 0.0009, x2 = 0.0002176	1.039	0.891	0.803	0.732	0.662
x1 = 0.0009001, x2 = 5.44e-05	1.033	0.884	0.797	0.725	0.655
x1 = 0.0009001, x2 = 0.0001088	1.035	0.886	0.799	0.727	0.657
x1 = 0.001798, x2 = 0.0001642	1.015	0.873	0.788	0.725	0.642
x1 = 0.001798, x2 = 0.000219	1.02	0.875	0.79	0.726	0.643
x1 = 0.001798, x2 = 0.0002737	1.025	0.878	0.792	0.728	0.645
x1 = 0.001798, x2 = 0.0003284	1.031	0.88	0.793	0.73	0.647
x1 = 0.001798, x2 = 0.0003831	1.034	0.885	0.797	0.732	0.648
x1 = 0.001798, x2 = 0.0004378	1.037	0.888	0.803	0.733	0.65
x1 = 0.001798, x2 = 0.0004925	1.039	0.892	0.807	0.736	0.653
x1 = 0.001798, x2 = 0.0005472	1.042	0.896	0.813	0.738	0.655
x1 = 0.001799, x2 = 5.475e-05	1.004	0.867	0.784	0.721	0.634
x1 = 0.001799, x2 = 0.0001095	1.01	0.87	0.785	0.722	0.639

CC[n+]1ccn(C)c1C.O=S(=O)([N-]S(=O)(=O)C(F)(F)F)C(F)(F)F + O=C1CCCO1
100 kPa
Details	electrical conductivity [S/m]
293.15 K, x2 = 0.3071	0.628
293.15 K, x2 = 0.7999	1.36
293.15 K, x2 = 0.9507	0.925
298.15 K, x2 = 0	0.383
298.15 K, x2 = 0.6999	1.42
298.15 K, x2 = 0.7999	1.52
308.15 K, x2 = 0.4996	1.34
308.15 K, x2 = 0.8999	1.72
313.15 K, x2 = 0.8999	1.84
318.15 K, x2 = 0.4996	1.69
323.15 K, x2 = 0	0.92
323.15 K, x2 = 0.0999	1.07
323.15 K, x2 = 0.5987	2.02
323.15 K, x2 = 0.8474	2.3
323.15 K, x2 = 0.9507	1.4
